The values below come from paper PMC12525431, “Hsp70 Peptides Induce TREM-1-Dependent and TREM-1-Independent Activation of Cytotoxic Lymphocytes” (International Journal of Molecular Sciences, 2025).

Entries after “also recorded” stand apart in the source; their conditions may differ. Read-outs that look alike come from different tables or passages of the source. Ends that are not written are not given here.

One series concerns K562 cells. Briefly: Cytotoxicity of activated PBMC/lymphocytes against K562 cells (Cytotox 96). The format is cell-based, human. The procedure: (§1) Human leukemic cell line K562 and THP-1 cell line were cultured in RPMI-1640 (Himedia Laboratories Private Limited, Maharashtra, India) and 10% FCS (Cytiva Livescience™, Marlborough, MA, USA). This cell line was obtained from the cell line collection of N. N. Blokhin National Medical Research Center of Oncology of the Ministry of Health of Russia. […] The cells were sorted using sets of magnetic beads for isolation of CD14+, CD16+, CD56+, CD8+, and CD4+ according to the manufacturer’s protocol (all were produced by Thermo Fisher Scientific, Waltham, MA, USA).
(§2) For cytotoxicity tests, cells of the K562 line were cultured in 96-well plates (Guangzhou Jet Bio-Filtration Co., Guangzhou, China) (6 × 10^4 per well) mixed with lymphocytes added at a 20:1 ratio and incubated at 37 °C in a 5% CO2 atmosphere for 3 to 24 h). In the inhibition assays, cells were pre-incubated for 1 h with the LP17 ([…]) (Thermo Fisher Scientific, Boston, MA, USA), abTREM1 (ABclonal, Woburn, MA, USA), anti-NKG2D, anti-granzyme B, caspase 3 inhibitor Ac-IEID-CHO, RIP1 kinase inhibitor necrostatin1, TLR4 inhibitor, anti-MicA, anti-FasL, anti-CD94 antibody (concentration was 20 μg/mL for all inhibitors and all from Thermo Fisher Scientific, Waltham, MA, USA) and then the lymphocytes were added.
(§3) Cytotoxicity was measured using a Cytotox 96 analysis kit (Promega, Madison, WI, USA) after 24 h of incubation in accordance with the manufacturer’s protocol.

Series [1] has as its target T1, TREM-1 (Homo sapiens, UniProt Q9NP99).
T1 construct: causes dissociation of the TREM-1 exocellular domain; made in house
The note with it: cited from earlier work.

Another series has as its system HLA-negative tumor cells. The conditions noted are these: cited from earlier work.
The test system of the next series is ICR mice. Briefly: LPS-induced sepsis in mice, survival. The format is in vivo. The conditions noted are these: N7.1 120 µg per mouse i.v. 1 h after LPS. The procedure: Female ICR mice weighing 25 ± 1.1 g (7-week-old) were obtained from the Animal Breeding Facility of IBCh RAS (Bioresource Collection supported by the Ministry of Science and Higher Education of the Russian Federation, contract No. 075-15-2025-486). During the experiment, all mice were maintained in a specific pathogen-free (SPF) state under a strict light cycle (lights on at 07:00 h and off at 19:00 h), at 22 ± 2 °C and 50 ± 10% relative humidity. Animals were provided ad libitum access to a standard laboratory autoclavable rodent diet.
Twenty-one mice were used for the present study. The animals were randomly assigned to three groups with seven animals in each group: (1) control, intact animals; (2) intravenous injection of physiological saline (100 μL 0.9% NaCl) as a placebo during LPS-induced sepsis; (3) intravenous injection of peptide N7.1 (120 µg in 100 µL saline per mouse) during LPS-induced sepsis. LPS-induced sepsis was stimulated by an intraperitoneal injection of 0.6 mg lipopolysaccharides from Salmonella enterica Serotype Typhimurium (Sigma-Aldrich Co., St. Louis, MO, USA). Due to the small fluctuation in animal weight, weight-based dosing of LPS was not used. Drug treatment (saline or peptide N7.1) was carried out 1 h after LPS-induced sepsis.

Series [2] deals with T1, TREM-1. The series can be described thus: Interaction with / dependence on TREM-1 (judged from cytotoxicity blocking and binding experiments). It counts as cell-based. The note with it: for effect on interaction of TREM-1 with its ligands: ligands N7 peptide, HMGB1, full-length Hsp70, judged from PBMC cytotoxicity. The procedure:
as §1, §2, §3

The target of series [3] is T1, TREM-1. Briefly: Microscale thermophoresis, binding to TREM-1. The conditions noted are these: sTREM-1 labeled with Alexa Fluor 488, 30 min in the dark at room temperature, 16 concentrations by sequential dilution, Monolith NT 115, 8% IR laser power, at least three replicates. The procedure:
The purified sTREM-1 protein was labeled using an Alexa FluorTM 488 Protein Labeling Kit (Life Technologies Corporation, Eugene, OR, USA) in accordance with the manufacturer’s protocol.
The N7 peptide and TKD (C = 200 nM for all) were incubated for 30 min in the dark at room temperature in 16 different concentrations obtained through sequential dilution, starting with the highest soluble concentration. The samples were transferred to glass capillaries (Monolith NT Capillaries, NanoTemper Technologies GmbH, München, Germany) and then analyzed using a Nano-Temperature Monolith NT 115 device (8% IR laser power). The signal quality was monitored using a NanoTemper Monolith device to detect possible autofluorescence of the ligand, aggregation, or changes in the photobleaching rate. The experiments were carried out in at least three replicates and processed using affinity analysis software (MO Control v.1.6.1, NanoTemper Technologies GmbH, München, Germany).
On the technique in general: Microscale thermophoresis detects binding through changes in fluorescence in a small temperature gradient.

Another series deals with CD94 receptor. The series can be described thus: Interaction with CD94 receptor (judged from PBMC cytotoxicity). It counts as cell-based, human. The note with it: concluded from cytotoxicity experiments. The procedure: as §1
For cytotoxicity tests, cells of the K562 line were cultured in 96-well plates (Guangzhou Jet Bio-Filtration Co., Guangzhou, China) (6 × 10^4 per well) mixed with lymphocytes added at a 20:1 ratio and incubated at 37 °C in a 5% CO2 atmosphere for 3 to 24 h). […]
as §3

Setting [4] is: 4th day of PBMC incubation with N7, magnetic separation, K562, n = 5.
The mark [5] stands for this setting: 6th day of PBMC incubation with N7, magnetic separation, K562, n = 5.

The Kd is the constant that tells how readily two partners part at equilibrium. Low readings indicate tighter binding, high ones weaker binding.

T1 sequence (Q9NP99 21-205 limits assumed): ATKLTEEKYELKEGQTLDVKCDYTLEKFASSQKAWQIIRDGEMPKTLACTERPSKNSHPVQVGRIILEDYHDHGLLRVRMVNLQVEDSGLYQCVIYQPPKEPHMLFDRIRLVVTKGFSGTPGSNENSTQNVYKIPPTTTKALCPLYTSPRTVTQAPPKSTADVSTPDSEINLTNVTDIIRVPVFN

“Ac-IEID-aldehyde [caspase 3 inhibitor, reference compound]”: the “effect of inhibitor on activity of NK cells” value in the series on K562 cells (NK cells activated by N7, inhibitor pre-incubated 1 h (20 μg/mL), K562, n = 5) is recorded as “blocked”.
As to “Hsp70: recombinant human Hsp70, expressed in Escherichia coli M15”, the TREM-1 ligand entry in the series with TREM-1 [1] (ref [19]) was “ligand of the TREM-1 innate immunity receptor”. The “activation of cytotoxic lymphocytes” value in the series on HLA-negative tumor cells is “activates TREM-1-dependent and TREM-1-independent cytotoxic lymphocytes that kill HLA-negative tumor cells”.
In the case of “SDNQPGVL [N7.1, N-terminal fragment of N7 peptide]”, the “effect on lymphocyte activation by TREM-1 ligands” value with K562 cells (PBMC pre-incubated with shortened peptide, then N7 peptide, HMGB1 or Hsp70 for 6 days, K562 24 h) is “blocks the activation of lymphocytes by all the ligands studied”. Also, in the series on ICR mice (LPS-induced sepsis in mice), the “effect in development of sepsis” value is given as “protective effects in the development of sepsis in mice”. Further, the “surviving animals (survival rate)” value with ICR mice (female ICR mice, n = 7, 0.6 mg S. enterica LPS i.p., observed to 120 h, saline 29%) is reported as 86%. For the same molecule, the “effect on interaction of TREM-1 with its ligands” value was “inhibits the interaction of TREM-1 with its ligands; also recorded: prevent interaction of the TREM-1 receptor with its ligands in vitro” on TREM-1 [2] and “competes with other ligands” on TREM-1 [2] (listed as SDNQPGVL).
As for “LQVTDSGLYRCVIYHPP [LP17, reference compound]”, the TREM-1 signaling inhibition entry at TREM-1 [1] (ref [24]) is on record as “TREM-1 signaling inhibitor”.
Consider actin, for which, on TREM-1 [1] (ref [30],[31],[32],[33]), the TREM-1 ligand result is listed as “TREM-1 ligands”.
Turning to “PGLYRP1: innate immunity protein PGLYRP1, TREM-1 ligand”, in the series with TREM-1 [1] (ref [30],[31],[32],[33]), the TREM-1 ligand result is recorded as “TREM-1 ligands”.
For the molecule `CC(C)C[C@H](NC(=O)[C@H](CC(C)C)NC(=O)[C@H](CC(N)=O)NC(=O)[C@H](CC(N)=O)NC(=O)[C@H](CC(=O)O)NC(=O)[C@H](CCCCN)NC(=O)[C@@H](N)[C@@H](C)O)C(=O)NCC(=O)N[C@@H](CCCNC(=N)N)C(=O)N[C@@H](Cc1ccccc1)C(=O)N[C@@H](CCC(=O)O)C(=O)N[C@@H](CC(C)C)C(=O)N[C@@H](CO)C(=O)NCC(=O)O` [TKD], at TREM-1 [3], the Kd stood at 3 µM.
Take SDNQPGVLIQVYEGEK [N7]: in the series with K562 cells (setting [4]), the “cytotoxic activity of CD4+ T lymphocytes” value is listed as “activated”, the “cytotoxic activity of CD8+ T lymphocytes” value is “No traces of cytotoxic activity” and the “cytotoxic activity of NK cells” value is given as “reached their maximum activity”. Moreover, in the series with K562 cells (setting [5]), the “cytotoxic activity of CD4+ T lymphocytes” value was “remained”, the “cytotoxic activity of CD8+ T lymphocytes” value was “appeared” and the “cytotoxic activity of NK cells” value is given as “completely disappeared”. Further, the “induction of cytotoxic lymphocytes” value in the series on K562 cells (PBMC 6 days with synthetic peptide (10^−9 M), MHC-negative K562 cells 24 h, n = 5) was “cytotoxic lymphocytes appear in the population, killing MHC-negative K562 tumor cells”.
As to “AMTKDNNLLGR [N9, 11-membered peptide from fraction No. 9; can be considered as a shortened TKD peptide]”, the lymphocyte populations activated result in the series on K562 cells (human PBMC ex vivo with peptide, K562 target cells) is on record as “activates CD94+ NK cells”. In addition, on TREM-1 [2] (concluded from LP17 blocking and binding experiments), the “interaction with TREM-1” value is on record as “does not interact with the TREM-1 receptor”. In the series on CD94 receptor, the “interaction with CD94 receptor” value is listed as “interact with the CD94 receptor”.
In the case of `CN1C(=O)C(Cc2c[nH]c3ccccc23)NC1=S` (centres unmarked) [inhibitor of RIP1 kinase, necrostatin1, reference compound], the “effect of inhibitor on cytotoxic signal” value with K562 cells (CD8+ and CD4+ T lymphocytes activated by N7, 6 days, inhibitor pre-incubated 1 h (20 μg/mL), K562 3 or 24 h, n = 5) is “prevent the induction of cytotoxic signal”.
